Results reported in ChEMBL document CHEMBL1201862, “PubChem BioAssay data set” (2004).
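Method: 48-hour compound exposure of cells in 96-well plates, five concentrations, linear interpolation of endpoints. GI50: concentration for 50% inhibition of growth.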 Active and inactive are the calls of the source. Rule as the data show it: active = GI50 up to about 1.1 µM and inactive = higher.

Experiments:
Assay in all cases: inhibition of tumour cell growth, NCI panel, 48 h
786-0 = system: 786-0
CAKI-1 = system: CAKI-1
HCC 2998 = system: HCC 2998
IGROV-1 = system: IGROV-1
NCI-H226 = system: NCI-H226
OVCAR-3 = system: OVCAR-3
RPMI-8226 = system: RPMI-8226
SK-MEL-28 = system: SK-MEL-28
SK-MEL-2 = system: SK-MEL-2
SK-OV-3 = system: SK-OV-3
SN12C = system: SN12C
SNB-19 = system: SNB-19
SR = system: SR
UACC-257 = system: UACC-257
UO-31 = system: UO-31
Hs-578T = system: Hs-578T
MCF7 = system: MCF7
MDA-MB-231 = system: MDA-MB-231
OVCAR-8 = system: OVCAR-8
T47D = system: T47D

Row | Compound | GI50 (786-0) | GI50 (CAKI-1) | GI50 (HCC 2998) | GI50 (IGROV-1) | GI50 (NCI-H226) | GI50 (OVCAR-3) | GI50 (RPMI-8226) | GI50 (SK-MEL-28) | GI50 (SK-MEL-2) | GI50 (SK-OV-3) | GI50 (SN12C) | GI50 (SNB-19) | GI50 (SR) | GI50 (UACC-257) | GI50 (UO-31) | GI50 (Hs-578T) | GI50 (MCF7) | GI50 (MDA-MB-231) | GI50 (OVCAR-8) | GI50 (T47D)
1 | CC(C)=CC(=O)Cc1nc2cc(C)c(C)cc2[nH]c1=O | > 100 µM (inactive) | > 100 µM (inactive) | > 100 µM (inactive) | > 100 µM (inactive) | > 100 µM (inactive) | > 100 µM (inactive) | > 100 µM (inactive) | > 100 µM (inactive) | > 100 µM (inactive) | > 100 µM (inactive) | > 100 µM (inactive) | > 100 µM (inactive) | > 100 µM (inactive) | > 100 µM (inactive) | 75 µM (inactive) | – | – | – | – | –
2 | COc1ccc(-c2cc(O)c3nc4ccccc4n3c2)cc1 | > 100 µM (inactive) | > 100 µM (inactive) | – | 71 µM (inactive) | > 100 µM (inactive) | > 100 µM (inactive) | > 100 µM (inactive) | > 100 µM (inactive) | – | – | > 100 µM (inactive) | > 100 µM (inactive) | > 100 µM (inactive) | > 100 µM (inactive) | > 100 µM (inactive) | 85.7 µM (inactive) | > 100 µM (inactive) | > 100 µM (inactive) | > 100 µM (inactive) | –
3 | CCOC(=O)NC(=O)c1cn(CCN2CCN(C(=O)CCCCCCCCCCNc3ncnc4c3ncn4C3OC(CO)C(O)C3O)CC2)c(=O)[nH]c1=O (stereo not given) | > 100 µM (inactive) | > 100 µM (inactive) | > 100 µM (inactive) | > 100 µM (inactive) | – | – | – | > 100 µM (inactive) | > 100 µM (inactive) | > 100 µM (inactive) | > 100 µM (inactive) | > 100 µM (inactive) | > 100 µM (inactive) | > 100 µM (inactive) | > 100 µM (inactive) | – | – | – | > 100 µM (inactive) | –
4 | OCCCCn1cnc2c(O)ncnc21 | > 100 µM (inactive) | > 100 µM (inactive) | > 100 µM (inactive) | > 100 µM (inactive) | > 100 µM (inactive) | > 100 µM (inactive) | > 100 µM (inactive) | > 100 µM (inactive) | – | – | > 100 µM (inactive) | > 100 µM (inactive) | > 100 µM (inactive) | > 100 µM (inactive) | > 100 µM (inactive) | – | – | – | > 100 µM (inactive) | –
5 | O=C(OCC1OC(c2nn[nH]n2)C(OC(=O)c2ccccc2)C1OC(=O)c1ccccc1)c1ccccc1 (stereo not given) | > 100 µM (inactive) | > 100 µM (inactive) | > 100 µM (inactive) | – | 79.8 µM (inactive) | > 100 µM (inactive) | 18.6 µM (inactive) | – | > 100 µM (inactive) | > 100 µM (inactive) | > 100 µM (inactive) | 32.7 µM (inactive) | – | > 100 µM (inactive) | > 100 µM (inactive) | – | 41.2 µM (inactive) | – | > 100 µM (inactive) | –
6 | Cc1ccc2nc(-c3ccc(N)c(I)c3)sc2c1 | 15.8 µM (inactive) | > 100 µM (inactive) | 6.75 µM (inactive) | – | 16 µM (inactive) | 21.8 µM (inactive) | – | > 100 µM (inactive) | 17.9 µM (inactive) | 38.2 µM (inactive) | – | 19 µM (inactive) | 4.2 µM (inactive) | 23.7 µM (inactive) | 7.06 µM (inactive) | 31 µM (inactive) | – | 14.3 µM (inactive) | 67.5 µM (inactive) | –
7 | CN(C)/N=N/c1ccc(C(N)=O)cc1 | > 100 µM (inactive) | > 100 µM (inactive) | > 100 µM (inactive) | > 100 µM (inactive) | > 100 µM (inactive) | > 100 µM (inactive) | > 100 µM (inactive) | > 100 µM (inactive) | > 100 µM (inactive) | > 100 µM (inactive) | > 100 µM (inactive) | > 100 µM (inactive) | > 100 µM (inactive) | > 100 µM (inactive) | > 100 µM (inactive) | – | – | – | > 100 µM (inactive) | –
8 | CC1=NN(C(=O)c2ccccc2O)C(=O)/C1=C/c1cccc([N+](=O)[O-])c1 | 2.47 µM (inactive) | 2.2 µM (inactive) | 36.1 µM (inactive) | 0.384 µM (active) | 0.274 µM (active) | 1.87 µM (inactive) | 13.3 µM (inactive) | > 49.7 µM (inactive) | 3.1 µM (inactive) | 15.3 µM (inactive) | 3.01 µM (inactive) | 0.385 µM (active) | > 100 µM (inactive) | 5.73 µM (inactive) | 0.596 µM (active) | – | 2.52 µM (inactive) | 41.8 µM (inactive) | 0.889 µM (active) | 17.3 µM (inactive)
9 | CC12CCC(/C(=N/c3cc(C(F)(F)F)cc(C(F)(F)F)c3)C1=O)C2(C)C (stereo not given) | 35.5 µM (inactive) | 44 µM (inactive) | 26.3 µM (inactive) | 25.2 µM (inactive) | 86.7 µM (inactive) | 33.7 µM (inactive) | 17.8 µM (inactive) | 25.8 µM (inactive) | 18.8 µM (inactive) | > 100 µM (inactive) | – | 49.4 µM (inactive) | 18.8 µM (inactive) | 46.6 µM (inactive) | 52 µM (inactive) | – | 28.4 µM (inactive) | 36.9 µM (inactive) | 81.5 µM (inactive) | 19.8 µM (inactive)
